Test results taken from US12415939B2, “Nano-adhesive and surface primer compound and use thereof” (The Regents of the University of California, priority 2015, dated 2025).

Legend:
[1] = Lap shear test of cured PMA resin on primed mica; settings: first value of each pair (mica)
Procedure: (§1) 1 wt % primer solution was spread on mica, glass, tooth enamel, or a silicon wafer and incubated for 1 min, followed by thorough washing with methanol (for MDP, P1-P3) or DMSO (for P4) and drying by flowing nitrogen. The surfaces were exposed to a basic aqueous solution (pH 9, using sodium hydroxide), incubated for 1 min, and drying by flowing nitrogen (see FIG. 52). The methacrylic comonomer blend (Bis-GMA, TEGDMA, DMAEMA and CQ) was packed in a gelatin capsule (size #4, 5-mm diameter, Torpac Inc.) and placed up on top of the primer-treated substrates. The comonomer blend was cured (or crosslinked) for 1 min using a portable dental curing lamp (Foshan Liang Ya Dental Co., LY-A180, 420-480 nm, 1200-2000 mW·cm^−2) (see FIG. 53). Uniaxial compression was applied to the capsule at a rate of 0.05 inch min^−1 using a materials testing system (MTS Bionix 200) until the capsules are separated from the substrate. The lap shear fracture measurements were repeated at least 10 times for each condition.

[2] = Lap shear test of cured PMA resin on primed silica/glass; settings: second value of each pair (silica)
Procedure: as §1

[3] = Lap shear test of cured PMA resin on primed tooth enamel; design: species or system human
Procedure: as §1

[4] = SFA adhesion of cured PMA resin between primer-treated mica surfaces
Procedure: Atomically-smooth muscovite mica sheets were freshly cleaved (thickness of 2-5 μm) and attached on another large freshly cleaved mica backing sheet under a laminar flow hood and placed in a desiccator for clean storage. To ensure use of a fresh surface for each experiment, mica was peeled away from the backing sheet and glued on cylindrical disks using an epoxy glue (EPON 1004 F® from Exxon Chemicals). In each experiment, the mica surfaces were treated with one of the primer solutions, as described for the lap shear experiments, and then mounted in the SFA in a cross cylindrical geometry. In contrast to typical SFA experiments, which use an interferometric method to calculate the disk-disk separation distances and thus the interaction forces, in the SFA used here for adhesion testing, the disk separations were directly measured using semiconductor strain-gauged double cantilever springs (k=1000-10000 N/m)(see FIG. 67). After separating the surfaces, 100 […]1 of comonomer blend was injected between the two surfaces. Then, ˜600 mN of load was applied, followed by visible light curing for 1 min using the portable dental curing lamp (see FIG. 54G). Adhesion strength of cured polymer toward the mica was measured by detaching (unloading) two surfaces. All loading and unloading were performed using a coarse micrometer at the velocity of […]. The SFA measurements were repeated at least 5 times for each condition.

[5] = QCM-D adsorption of primers; format: physicochemical
Procedure: A ‘static cell’ (often called ‘Open Module’) QCM-D (Q-Sense, Biolin Scientific) was employed to quantitatively evaluate the adsorption of each primer onto SiO2 surface using a quartz sensor (QSX 303, Biolin Scientific). Changes in resonance frequency (ΔF) and dissipation (ΔD) of the SiO2 were recorded and used to measure the adsorbed mass and layer viscoelasticity, respectively, of the primer deposited on the sensor. In detail, pure solvent (100 μl) was dropped onto the sensor and equilibrated for ˜20-30 min. Then, 2 wt % primer solution (100 μl) was dropped onto the sensor (this is labeled “Solution Drop-in” in FIG. 51) and equilibrated until the frequency and dissipation signals stabilized. To remove unbound primers, the sensor was rinsed with solvents (this is labeled “Solvent Rinsing” in FIG. 51) and equilibrated until frequency and dissipation signals stabilized.
Mass loss of P3 and P4 during the rinsing was negligible compared to P2 which lost 60% of initial mass, indicating outstanding adsorption efficiency of catechol-containing primers on SiO2 surfaces even compared to mussel foot protein adsorption (˜30% loss of mfp-3s^3). The priming thickness of P4 estimated by QCM-D is ˜3.1 nm which agrees with the average height of AFM images (˜3.5 nm), assuming that QCM-D measures the average thickness of a uniform layer. The smaller average thickness of P4 (˜3.1 nm) compared to the molecular contour length (˜4.8 nm) may be attributed to the flexible alkyl spacer in P4. The possibility of a softer, more flexible layer with P4 is supported by a higher change in dissipation (ΔD) compared to other primers.

[6] = AFM height profiles of adsorbed primers; format: physicochemical
Procedure: Each primer solution (1 wt %) was prepared in methanol (for P1-P3) or DMSO (for P4). The primer solution was drop cast onto a freshly cleaved mica or glass surface, and kept at room temperature for 1 min. Subsequently, the surfaces were thoroughly rinsed with the respective solvents and dried with argon. All images, surface profiles and surfaces roughnesses were collected using an Asylum MFP-3D standard system (Asylum Research, Santa Barbara, CA) using silicon cantilevers (FORTGG-50, Applied NanoStructures, Santa Clara, CA) (FIGS. 48C and 49).

[7] = Cyclic voltammetry of catechol oxidation; format: physicochemical; settings: 5 mM in DI water
Procedure: (§2) Cyclic voltammetry was performed on a Versastat 3 potentiostat from Ametek Co. These analyses were carried out using a three-electrode cell: a Pt wire as the counter electrode, an Ag/AgCl reference electrode, and a Carbon paste electrode (CPE) served as the working electrode. CPE is the best choice for adhesive materials because of its ability to be completely polished before each experiment. Catechol auto-oxidation was avoided by performing all electrochemical experiments with degassed deionized water in a glove bag under argon. Scan rate 1 mV s-1 was used for all experiments. CV of 5 mM synthesized polymers and 5 mM methyl catechol, a simple catechol-containing compound, were compared. Oxidation of Catechol carrying molecules occurred at more positive potentials than methyl catechol, indicating the unique structure of the dispersions provide shielding effects that stabilized catechol groups (FIG. 3).
Cyclic voltammetry was performed on a Versastat 3 potentiostat from Ametek Co. (Berwyn, PA). These analyses were carried out using a three-electrode cell: a Pt wire as the counter electrode, an Ag/AgCl reference electrode, and a Carbon paste electrode (CPE) served as the working electrode. CPE is the best choice for adhesive materials because of its ability to be completely polished before each experiment.
as §2, with “s^−1” for “s-1”, “molecules” for “polymers”, “groups. Z-Cat-Ben with an oxidation peak at 840 mV is more resistant to oxidation than the other species” for “groups”, “42).” for “3).”

[8] = Surface forces apparatus (SFA) cohesion/adhesion between thin films on mica; format: physicochemical
Procedure: The interaction between two surfaces can be measured with nano-Newton level force resolution and Angstrom level resolution in the separation distance between the surfaces. The details of the SFA techniques have been describe in a work by Israelachvili et al. In a typical SFA experiment (FIG. 2C), the distance and the force between the surfaces are measured simultaneously. To begin with, the instrument is calibrated at large separation distances. When the two surfaces are not interacting, i.e., they are separated by large distances, the change in the separation between them is equal to the distance through which the motor moves the lower surface towards or away from the upper surface (or the upper surface driven by the piezo-tube moves towards the lower surface). However, once the surfaces are close enough to start interacting with each other, the measured separation distance deviates from the expected separation calibrated when there is no force between the surfaces. This deviation is due to the deflection of the double cantilever spring and is directly proportional to the force acting normally between the two opposing surfaces. Thus the normal force can be measured using Hooke's law, F=kΔx, where k is the spring constant of the double-cantilever spring and Δx=Dactual−Dapplied is the deflection of the spring, determined by taking the difference between the applied change in position of one of the surfaces Dapplied and the actual change in distance measured between the surfaces Dactual. The actual distance, Dactual, between the surfaces can be measured by multiple beam interferometry (MBI) and will be discussed below.
The distance between the surfaces, shape of the interface and the refractive index of the media between the surfaces can be accurately determined by Multiple Beam Interferometry (MBI) technique. In this technique, white light is directed through two back-silvered mica surfaces (or uniform and same thickness). As a white light passes between the mica surfaces, it undergoes interference due to the optical trap set up by the back silver on each of these surfaces giving rise to discrete wavelengths of light (FIG. 2C). These wavelengths of light are resolved in a spectrometer creating interference fringes known as ‘fringes of equal chromatic order’ (FECO). Since mica is birefringent, the FECO appears as doublets and termed as β and γ. Alternate fringes are termed as odd and even fringes with odd fringes having nodes at the center and even fringes with anti-nodes in the center. The FECO is then recorded on a camera and analyzed to determine the distance between the surfaces using the following equations: […]
The adhesion/cohesion energy of the synthetic zwitterionic molecules was investigated in SFA (SurForce LLC, Santa Barbara, CA). Two molecularly smooth freshly cleaved back silvered mica surfaces glued on cylindrical silica discs of radius of curvature, R˜2 cm, were mounted in the SFA and 50 μL of a colloidal dispersion of the synthetic molecules in DI water were injected between the surfaces at different concentrations (C=0.5-5 mM) and the forces between the thin films of the molecules were measured by Multiple Beam Interferometry (MBI). The adhesion forces between Z-Cat-C10 molecules on various surfaces, e.g., silica and copper, were also measured by AFM (MFP-3D, Asylum research, Goleta, CA) in DI water and ambient conditions, respectively, at room temperature. AFM probes with a silicon dioxide particle (10, 5, and 1 μm, respectively) on a silicon nitride (SN) cantilever-0.6 N m^−1 were purchased from Novascan Technologies, Inc (Ames, IA). Cantilever spring constants were measured for each force run. Images of Z-Cat-C10 coating on silicon wafer and copper plates were visualized in an AFM. […]

[9] = Contact angle measurements on SAM-modified substrates; format: physicochemical; settings: SAM-modified nano-grooved SiO2
Procedure: The nano-grooved SiO2 substrates passivated with Z-Cat-Ben or Z-Cat-Ben-F SAMs were prepared with the same procedure described above. For the reference substrate, the pre-cleaned and ultraviolet/ozone-treated (for 10 min) nano-grooved SiO2 substrate was passivated with n-decyltrichlorosilane (Gelest Inc.) in toluene solution (1% by volume) at 80° C. for 20 min in ambient air. Then, the substrate was subsequently sonicated in toluene and rinsed with additional toluene several times. Anhydrous chlorobenzene (50 μL) was used as a droplet dropping on the substrates. All contact angle images were taken at the direction perpendicular to nano-grooves in the substrates using Dataphysics OCA 15EC goniometer.

[10] = OFET characterization (saturation hole mobility)
Text: The OFETs were fabricated onto nano-grooved SiO2 substrates prepared by rubbing n^++Si (500 μm)/SiO2 (300 nm) substrate (International Wafer Services Co.) with a diamond lapping disc with particle sizes of 100 nm (Allied High Tech Products Inc.) as described in detail in the previous reports. The Ni (5 nm)/Au (50 nm) source and drain electrodes were patterned on the SiO2 dielectrics through a conventional photolithography process. For OFETs with Ni source and drain electrodes, an additional Ni (10 nm) layer was deposited on top of the pre-deposited Au electrodes. All metal electrodes were deposited by electron beam evaporation at 7×10^−7 Torr. Then, the substrates were sonicated in acetone and isopropanol for cleaning, and were kept in an oven at >100° C. for overnight. After ultraviolet/ozone treatment of pre-cleaned nano-grooved SiO2 substrates for 10 min, the substrates were passivated with the Z-Cat-Ben or Z-Cat-Ben-F SAM by dropping SAM water solution (5 mM) onto the substrates for ˜1 min. The substrates were subsequently rinsed with deionized water for ˜1 min, and were kept in a low vacuum for 10 min to remove residual water. The PCDTPT (1-Material Inc.) was then cast from a chlorobenzene solution (0.25 mg mL^−1) through the sandwich casting in a nitrogen-filled glove box. The devices were then cured at 200° C. for 1 min prior to measurements, and were tested using a probe station (Signatone Co.) in a nitrogen-filled glove box. Data were collected by a Keithley 4200 system.
The field-effect mobilities in the saturation regime were extracted using the following equation, IDS=(W/2L)Cμ(VGS−VT)^2 (7) where, W is the channel width, L is the channel length, C is the gate dielectric capacitance per unit area, μ is the carrier mobility in the saturation regime, IDS is the drain-source current, and VGS is the gate-source voltage. Channel width/length is 1000/200 μm for the devices used in this study. Transistor Characteristics of OFETs with Z-Cat-Ben and Z-Cat-Ben-F: Contact Angle Measurements: […]

| thickness from QCM-D [5] [nm] | surface concentration of adsorbed layer ([5]; Sauerbrey, after rinsing) [ng/cm^2] | mass loss during rinsing ([5]; of initial mass) | adsorption seen by AFM ([6]; 1 wt.% solution, mica and glass) | AFM height ([6]; mica) [nm] | hard-wall thickness ([8]; SAMs from 5 mM, mica) [nm] | SAM thickness on each mica surface ([8]; half of hard-wall) [nm] | contact angle θ of chlorobenzene droplet [9] [°] | Compound | lap shear strength σshear,max [1] [MPa] | lap shear strength σshear,max [2] [MPa] | lap shear strength σshear,max [3] | increase in adhesion vs plain mica (no primer) [4] [fold] | adhesion pressure Pad ([4]; n=5) [kPa] | stability in water to oxidation (shelf life) [7] | cohesion energy Wc between SAMs ([8]; 5 mM in DI water, mica) [mJ/m^2] | saturation hole mobility μ ([10]; Au source and drain electrodes) [cm^2 V^−1 s^−1] | saturation hole mobility ([10]; Ni source and drain electrodes) [cm^2 V^−1 s^−1] |
| --- | --- | --- | --- | --- | --- | --- | --- | --- | --- | --- | --- | --- | --- | --- | --- | --- | --- |
| ~3.1 | 345 | negligible | densely primed | ~3.5 | – | – | – | C=CC(=O)OCCCCCCCCOC(=O)CCc1ccc(O)c(O)c1 [P4, 8-((3-(3,4-dihydroxyphenyl)propanoyl)oxy)octyl acrylate] | 0.9±0.1 | 4.5±0.5 | 3.0±0.3 MPa | ~4 | 81.7±18.5 | – | – | – | – |
| – | – | – | – | – | – | – | – | C=CC(=O)OCCC[Si](OC)(OC)OC [Silane, 3-trimethoxysilylpropyl acrylate, reference compound] | 0.9±0.4 | 3.8±1.1 | no increase in the lap shear strength | – | – | – | – | – | – |
| – | – | – | – | – | 2.6±0.4 | ~1.3 | < 10 | C[N+](C)(CCCc1cc(C(F)(F)F)cc(C(F)(F)F)c1)CCOP(=O)([O-])OCCCc1ccc(O)c(O)c1 [Z-Cat-Ben-F] | – | – | – | – | – | stable (shelf life) in water to oxidation | 3.3±1.0 | 26±5 | 46±4 |
